This series deals with human lyophilized liver cells. Nature of the series: Stability evaluation in lyophilized liver cells. It counts as in vitro ADME. The note with it: 37° C. As to the method: KHEM5100 medium which includes human lyophilized liver cells after dissolving (final concentration of living cells: 1×10^6 cells/mL) and the test compound (acetonitrile or methanol solution, final concentration≦1%) was incubated at 37° C. Immediately after reaction and with the passage of reaction time, some portions were sampled from the medium. The concentrations of the test compound in the samples were measured by LC/MS/MS. The residual rate of the test compound relative to immediately after reaction was calculated by the following equation: Residual rate=the concentration of the test compound in the sample after reaction/the concentration of the test compound in the sample immediately after reaction×100(%) The residual rates were plotted on a single logarithmic scale against reaction time to calculate loss rate constants. The test was repeated (n=2), and the obtained values were averaged.

Turning to `C[C@@](O)(C/C=C/[C@H]1CCC(=O)[C@@H]1CCSc1nc(C(=O)O)cs1)CCC(F)=C(F)F` [Compound 17, 2-[(2-{(1R,5R)-2-oxo-5-[(1E,4S)-7,8,8-trifluoro-4-hydroxy-4-methyl-1,7-octadien-1-yl]cyclopentyl}ethyl)thio]-1,3-thiazole-4-carboxylic acid], the Residual rate is, setting by setting: (Reaction time 0 h) 100%; (Reaction time 0.5 h) 111%; (Reaction time 1 h) 101%; (Reaction time 1 h, listed as compound 17) 100%; (Reaction time 2 h) 82.2%; (Reaction time 2 h, listed as compound 17) at least 80%.
